Source: US9018258B2, “Substituted 1-benzylcycloalkylcarboxylic acids and the use thereof” (Bayer Intellectual Property GmbH, priority 2010, dated 2015)

Key:
[1] = target: T1, GAL4-PPARα (Homo sapiens, UniProt Q07869); experiment: Cellular PPAR transactivation assay, GAL4-PPARα chimera in CHO-K1 cells; type: cell-based; conditions: for Emax: CHO-K1, maximum effect relative to reference compound (Example 73 of EP 1 452 521-A1 = 100%), read-out: PPARα efficacy; for EC50: CHO-K1 cells, luciferase reporter, 6 h stimulation
T1 construct: expressed in transfected cells
T1 sequence (Q07869 167-468): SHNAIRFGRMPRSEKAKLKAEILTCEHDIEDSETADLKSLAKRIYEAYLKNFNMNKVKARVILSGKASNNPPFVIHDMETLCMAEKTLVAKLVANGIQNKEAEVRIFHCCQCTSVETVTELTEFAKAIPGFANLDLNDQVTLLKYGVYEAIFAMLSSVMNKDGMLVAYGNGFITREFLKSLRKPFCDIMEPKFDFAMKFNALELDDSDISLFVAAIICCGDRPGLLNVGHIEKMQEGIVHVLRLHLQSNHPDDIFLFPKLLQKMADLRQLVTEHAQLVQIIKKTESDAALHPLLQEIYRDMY
How it was run: (§1)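 CHO-K1 cells stably expressing GAL4 DNA-binding domain fused to the human PPAR ligand-binding domain (α aa 167-468, γ aa 203-506, δ aa 138-442) plus a GAL4-driven firefly luciferase reporter. Compounds added in serum-free medium for 6 h; EC50 from luminescence curves. Efficacy in % of a pan-PPAR agonist reference set as 100%.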

[2] = target: T2, sGC (Rattus norvegicus, UniProt P20595); experiment: Action at a recombinant guanylate cyclase reporter cell line (CHO reporter cell); type: cell-based; conditions: CHO reporter cell in vitro
T2 construct: expressed in transfected cells; host or cells: CHO reporter cell
T2 sequence (P19686 whole entry partner): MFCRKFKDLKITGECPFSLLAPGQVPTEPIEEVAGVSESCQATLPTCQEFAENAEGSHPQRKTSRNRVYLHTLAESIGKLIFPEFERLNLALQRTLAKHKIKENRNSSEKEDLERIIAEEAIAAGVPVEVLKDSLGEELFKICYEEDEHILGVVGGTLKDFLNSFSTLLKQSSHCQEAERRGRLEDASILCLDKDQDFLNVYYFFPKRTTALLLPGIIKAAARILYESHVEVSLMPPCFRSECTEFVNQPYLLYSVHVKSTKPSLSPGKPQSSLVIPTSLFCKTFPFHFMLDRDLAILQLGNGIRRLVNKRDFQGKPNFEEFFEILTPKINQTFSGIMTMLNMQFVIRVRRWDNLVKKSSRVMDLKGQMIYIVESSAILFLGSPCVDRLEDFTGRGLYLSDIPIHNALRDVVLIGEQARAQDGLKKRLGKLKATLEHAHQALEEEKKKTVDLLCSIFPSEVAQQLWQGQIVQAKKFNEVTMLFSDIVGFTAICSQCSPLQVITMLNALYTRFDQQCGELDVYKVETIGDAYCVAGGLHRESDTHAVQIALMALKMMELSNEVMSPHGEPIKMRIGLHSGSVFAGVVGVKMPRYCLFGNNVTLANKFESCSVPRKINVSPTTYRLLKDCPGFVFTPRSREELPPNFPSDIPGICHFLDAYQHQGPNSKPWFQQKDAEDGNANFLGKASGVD
T2 sequence (P20595 whole entry): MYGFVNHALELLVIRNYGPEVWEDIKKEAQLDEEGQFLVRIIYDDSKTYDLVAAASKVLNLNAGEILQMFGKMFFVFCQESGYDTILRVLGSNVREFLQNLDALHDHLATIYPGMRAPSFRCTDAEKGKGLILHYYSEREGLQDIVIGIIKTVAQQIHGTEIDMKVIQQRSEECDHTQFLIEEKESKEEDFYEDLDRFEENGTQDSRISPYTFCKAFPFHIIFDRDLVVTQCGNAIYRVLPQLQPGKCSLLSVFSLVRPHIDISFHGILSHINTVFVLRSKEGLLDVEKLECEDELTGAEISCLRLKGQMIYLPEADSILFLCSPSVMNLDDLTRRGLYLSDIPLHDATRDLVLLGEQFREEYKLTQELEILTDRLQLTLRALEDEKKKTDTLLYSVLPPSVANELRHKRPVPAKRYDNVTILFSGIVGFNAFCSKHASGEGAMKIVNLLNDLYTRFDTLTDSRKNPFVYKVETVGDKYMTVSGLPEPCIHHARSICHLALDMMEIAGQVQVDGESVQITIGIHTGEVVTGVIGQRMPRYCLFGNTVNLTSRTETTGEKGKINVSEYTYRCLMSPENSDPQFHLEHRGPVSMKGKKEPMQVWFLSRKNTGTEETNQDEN
Protocol: The cellular action of the compounds according to the invention is determined at a recombinant guanylate cyclase reporter cell line, as described in F. Wunder et al., Anal. Biochem. 339, 104-112 (2005).

[3] = target: T3, GAL4-PPARδ (Homo sapiens, UniProt Q03181); experiment: Cellular PPAR transactivation assay, GAL4-PPARδ chimera in CHO-K1 cells; type: cell-based; conditions: for Emax: CHO-K1, maximum effect relative to reference compound (Example 73 of EP 1 452 521-A1 = 100%), read-out: PPARδ efficacy; for EC50: CHO-K1 cells, luciferase reporter, 6 h stimulation
T3 construct: PPARδ (amino acids 138-442); expressed in transfected cells
T3 sequence (Q03181 138-441 limits assumed): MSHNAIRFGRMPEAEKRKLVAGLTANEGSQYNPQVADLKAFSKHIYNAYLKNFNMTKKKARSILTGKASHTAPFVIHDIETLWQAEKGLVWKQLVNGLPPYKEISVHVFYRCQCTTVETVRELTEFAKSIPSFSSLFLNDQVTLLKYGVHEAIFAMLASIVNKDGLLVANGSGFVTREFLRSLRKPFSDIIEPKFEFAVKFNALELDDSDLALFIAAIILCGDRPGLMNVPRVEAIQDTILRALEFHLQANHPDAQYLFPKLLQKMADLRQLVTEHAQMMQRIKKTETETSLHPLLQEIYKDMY
How it was run: as §1

[4] = target: T4, Haem-containing sGC (Rattus norvegicus, UniProt P20595); experiment: Stimulation of recombinant soluble guanylate cyclase (sGC) in vitro, haem-containing enzyme; type: biochemical
T4 construct: made in house; host or cells: Sf9 insect cells (baculovirus)
T4 sequence (P19686 whole entry partner): as the sequence (P19686 whole entry partner) above
T4 sequence (P20595 whole entry): as the sequence (P20595 whole entry) above
Excerpt: Hoenicka, E. M. Becker, H. Apeler, T. Sirichoke, H. Schroeder, R. Gerzer and J.-P. Stasch, “Purified soluble guanylyl cyclase expressed in a baculovirus/Sf9 system: Stimulation by YC-1, nitric oxide, and carbon oxide”, J. Mol. Med. 77 (1999), 14-23. The haem-free guanylate cyclase is obtained by adding Tween 20 to the sample buffer (0.5% in the final concentration).
The activation of sGC by a test substance is reported as x-fold stimulation of the basal activity.

SMILES	Emax [1] [%]	EC50 [1] [µM]	MEC (minimum effective concentration), sGC-activating activity in the CHO reporter cell [2] [nM]	Emax [3] [%]	EC50 [3] [µM]	Stimulation (x-fold) of recombinant sGC, +0.01 μM DEA/NO ([4]; test substance 0.01 μM) [x-fold]	Stimulation (x-fold) of recombinant sGC, +0.01 μM DEA/NO ([4]; test substance 0.1 μM) [x-fold]	Stimulation (x-fold) of recombinant sGC, +0.01 μM DEA/NO ([4]; test substance 1.0 μM) [x-fold]	Stimulation (x-fold) of recombinant sGC, +0.01 μM DEA/NO ([4]; test substance 10 μM) [x-fold]	Stimulation (x-fold) of recombinant sGC, +10 μM ODQ ([4]; test substance 0.01 μM) [x-fold]	Stimulation (x-fold) of recombinant sGC, +10 μM ODQ ([4]; test substance 0.1 μM) [x-fold]	Stimulation (x-fold) of recombinant sGC, +10 μM ODQ ([4]; test substance 1.0 μM) [x-fold]	Stimulation (x-fold) of recombinant sGC, +10 μM ODQ ([4]; test substance 10 μM) [x-fold]	Effect of combination with DEA/NO (NO donor) on sGC stimulation [4]	Stimulation (x-fold) of recombinant sGC, Basal ([4]; test substance 0.01 μM) [x-fold]	Stimulation (x-fold) of recombinant sGC, Basal ([4]; test substance 0.1 μM) [x-fold]	Stimulation (x-fold) of recombinant sGC, Basal ([4]; test substance 1.0 μM) [x-fold]	Stimulation (x-fold) of recombinant sGC, Basal ([4]; test substance 10 μM) [x-fold]	other results
CCOC(c1ccc(Cl)c(NC(=O)[C@H](c2ccc(Cl)cc2)[C@@H](C)C(F)(F)F)c1)C1(C(=O)O)CC1 (single isomer, unassigned) [Example 101]	0	> 10	0.3	0	> 10														
[2H]C([2H])([2H])OC(c1ccc(Cl)c(NC(=O)[C@H](c2ccc(Cl)cc2)[C@@H](C)C(F)(F)F)c1)C1(C(=O)O)CC1 (single isomer, unassigned; (+)) [Example 99]	0	> 10	1	0	> 10	4.0 ± 0.6	4.4 ± 0.8	5.0 ± 1.7	5.3 ± 1.8	4.3 ± 0.4	5.7 ± 0.3	9.2 ± 0.9	10.3 ± 1.3	no synergistic effect	1.0 ± 0.0	1.5 ± 0.2	1.8 ± 0.3	2.6 ± 0.4	
C[C@H]([C@H](C(=O)Nc1cc(CC2(C(=O)O)CC2)ccc1Cl)c1ccc(Cl)c(F)c1)C(F)(F)F [Example 30, (+)-1-(4-chloro-3-{[(2S,3R)-2-(4-chloro-3-fluoro-phenyl)-4,4,4-trifluoro-3-methylbutanoyl]amino}-benzyl)cyclopropanecarboxylic acid]	0	> 10	0.3	0	> 10														
C[C@H]([C@H](C(=O)Nc1cc(CC2(C(=O)O)CC2)ccc1Cl)c1ccc(Cl)cc1)C(F)(F)F [Example 50, (+)-1-(4-Chloro-3-{[(2S,3R)-2-(4-chlorophenyl)-4,4,4-trifluoro-3-methylbutanoyl]amino}benzyl)-cyclopropanecarboxylic acid]	0	> 10	0.4	0	> 10	7.5 ± 1.8	7.6 ± 1.8	9.0 ± 2.0	13.3 ± 2.2	9.2 ± 1.4	9.6 ± 1.5	12.7 ± 1.5	21.5 ± 2.2	no synergistic effect	1.4 ± 0.1	1.2 ± 0.1	2.6 ± 0.4	6.4 ± 0.6	Stimulation (x-fold) of recombinant sGC, +0.01 μM DEA/NO ([4]; test substance 100 μM): 14.6 ± 2.2 x-fold; Stimulation (x-fold) of recombinant sGC, +10 μM ODQ ([4]; test substance 100 μM): 22.6 ± 2.6 x-fold; Stimulation (x-fold) of recombinant sGC, Basal ([4]; test substance 100 μM): 9.5 ± 0.9 x-fold
